Experimental data published in ChEMBL document CHEMBL5154884, “Discovery of a Novel Src Homology-2 Domain Containing Protein Tyrosine Phosphatase-2 (SHP2) and Cyclin-Dependent Kinase 4 (CDK4) Dual Inhibitor for the Treatment of Triple-Negative Breast Cancer” (J Med Chem, 2022).

Tests used:
[1] = Terminal half life in ICR mouse at 10 mg/kg, po measured upto 24 hrs by LC-MS/MS analysis; format: ADME, organism-based; conditions: in vivo, read-out: beta t1/2 (converted)
[2] = target: T1, Tyrosine-protein phosphatase non-receptor type 11 (Homo sapiens, UniProt Q06124); assay: Inhibition of SHP2 (unknown origin) using DiFMUP as substrate incubated for 60 mins followed by substrate addition for 30 mins by microplate reader method
T1 sequence (Q06124 whole entry): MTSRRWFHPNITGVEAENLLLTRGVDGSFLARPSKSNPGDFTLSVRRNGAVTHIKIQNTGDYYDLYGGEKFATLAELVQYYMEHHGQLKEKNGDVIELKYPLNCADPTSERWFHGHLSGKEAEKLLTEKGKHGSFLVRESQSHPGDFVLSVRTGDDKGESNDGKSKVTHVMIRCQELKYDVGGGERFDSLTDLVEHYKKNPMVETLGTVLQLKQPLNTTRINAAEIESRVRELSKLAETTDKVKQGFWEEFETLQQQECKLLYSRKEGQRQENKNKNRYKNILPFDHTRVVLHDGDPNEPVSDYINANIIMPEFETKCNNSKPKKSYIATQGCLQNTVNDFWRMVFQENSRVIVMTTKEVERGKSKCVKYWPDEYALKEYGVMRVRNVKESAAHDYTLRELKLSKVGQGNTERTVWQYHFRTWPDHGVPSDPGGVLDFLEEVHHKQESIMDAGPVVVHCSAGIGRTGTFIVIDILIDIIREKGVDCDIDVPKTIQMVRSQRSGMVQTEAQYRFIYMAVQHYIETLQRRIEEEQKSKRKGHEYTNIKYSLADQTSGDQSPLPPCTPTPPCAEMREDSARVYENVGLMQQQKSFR

[3] = Inhibition of recombinant full length N-terminal GST/His6-fusion tagged human CDK9/Cyclin T1 expressed in Sf9 insect cells incubated for 20 mins followed by [33P]gamma-ATP addition and measured after 2 hrs by radiometric HotSpot Kinase assay

Structure (SMILES): Cc1nc2c(F)cc(-c3nc(Nc4nccc(Sc5cnc(N6CCC7(CC6)CO[C@@H](C)[C@H]7N)cn5)c4Cl)ncc3F)cc2n1C(C)C
- half-life [1]: 2.94 h
- IC50 [2]: 4.3 nM
- IC50 [3]: 26.4 nM
